Drawing on ChEMBL document CHEMBL5446079, “Affinity Biochemical Literature for EUbOPEN Chemogenomic Library” (2024), this text covers IC50 for 4 compounds.

Each structure is given as a SMILES string.

The target in assay [1] is T1, Peregrin (Homo sapiens, UniProt P55201).
T1 sequence (P55201 whole entry): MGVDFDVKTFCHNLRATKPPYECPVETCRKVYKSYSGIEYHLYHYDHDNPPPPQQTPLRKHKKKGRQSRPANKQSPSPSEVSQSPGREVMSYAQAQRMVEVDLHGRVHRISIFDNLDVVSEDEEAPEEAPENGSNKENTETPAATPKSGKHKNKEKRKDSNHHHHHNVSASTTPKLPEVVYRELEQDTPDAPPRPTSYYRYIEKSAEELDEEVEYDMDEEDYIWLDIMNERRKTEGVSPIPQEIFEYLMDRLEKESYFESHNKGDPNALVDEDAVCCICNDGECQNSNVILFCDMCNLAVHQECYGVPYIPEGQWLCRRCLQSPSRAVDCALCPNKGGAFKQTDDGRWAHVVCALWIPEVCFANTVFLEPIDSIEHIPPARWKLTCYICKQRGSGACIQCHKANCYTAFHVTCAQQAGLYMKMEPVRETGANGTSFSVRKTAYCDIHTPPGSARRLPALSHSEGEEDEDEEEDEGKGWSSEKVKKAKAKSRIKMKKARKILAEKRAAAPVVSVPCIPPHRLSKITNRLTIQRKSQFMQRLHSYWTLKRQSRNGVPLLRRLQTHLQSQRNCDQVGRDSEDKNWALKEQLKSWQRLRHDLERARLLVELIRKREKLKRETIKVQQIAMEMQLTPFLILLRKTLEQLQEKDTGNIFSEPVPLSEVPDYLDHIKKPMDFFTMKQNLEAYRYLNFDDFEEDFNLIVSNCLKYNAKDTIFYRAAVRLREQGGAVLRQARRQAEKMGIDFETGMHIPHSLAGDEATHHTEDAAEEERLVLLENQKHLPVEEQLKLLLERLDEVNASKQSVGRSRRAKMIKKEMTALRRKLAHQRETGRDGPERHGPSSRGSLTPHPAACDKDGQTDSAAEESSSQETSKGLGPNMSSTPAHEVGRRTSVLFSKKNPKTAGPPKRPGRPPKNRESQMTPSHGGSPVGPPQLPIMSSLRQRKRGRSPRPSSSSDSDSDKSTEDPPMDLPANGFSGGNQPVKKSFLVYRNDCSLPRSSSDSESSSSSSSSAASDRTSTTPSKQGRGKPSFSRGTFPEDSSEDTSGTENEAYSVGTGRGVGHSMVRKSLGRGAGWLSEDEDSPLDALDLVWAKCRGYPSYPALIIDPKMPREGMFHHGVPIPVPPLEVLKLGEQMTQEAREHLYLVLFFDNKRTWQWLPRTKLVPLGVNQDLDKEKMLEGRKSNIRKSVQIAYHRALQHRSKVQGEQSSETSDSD

In assay [2] the target is T2, Bromodomain-containing protein 1 (Homo sapiens, UniProt O95696).
T2 sequence (O95696 whole entry): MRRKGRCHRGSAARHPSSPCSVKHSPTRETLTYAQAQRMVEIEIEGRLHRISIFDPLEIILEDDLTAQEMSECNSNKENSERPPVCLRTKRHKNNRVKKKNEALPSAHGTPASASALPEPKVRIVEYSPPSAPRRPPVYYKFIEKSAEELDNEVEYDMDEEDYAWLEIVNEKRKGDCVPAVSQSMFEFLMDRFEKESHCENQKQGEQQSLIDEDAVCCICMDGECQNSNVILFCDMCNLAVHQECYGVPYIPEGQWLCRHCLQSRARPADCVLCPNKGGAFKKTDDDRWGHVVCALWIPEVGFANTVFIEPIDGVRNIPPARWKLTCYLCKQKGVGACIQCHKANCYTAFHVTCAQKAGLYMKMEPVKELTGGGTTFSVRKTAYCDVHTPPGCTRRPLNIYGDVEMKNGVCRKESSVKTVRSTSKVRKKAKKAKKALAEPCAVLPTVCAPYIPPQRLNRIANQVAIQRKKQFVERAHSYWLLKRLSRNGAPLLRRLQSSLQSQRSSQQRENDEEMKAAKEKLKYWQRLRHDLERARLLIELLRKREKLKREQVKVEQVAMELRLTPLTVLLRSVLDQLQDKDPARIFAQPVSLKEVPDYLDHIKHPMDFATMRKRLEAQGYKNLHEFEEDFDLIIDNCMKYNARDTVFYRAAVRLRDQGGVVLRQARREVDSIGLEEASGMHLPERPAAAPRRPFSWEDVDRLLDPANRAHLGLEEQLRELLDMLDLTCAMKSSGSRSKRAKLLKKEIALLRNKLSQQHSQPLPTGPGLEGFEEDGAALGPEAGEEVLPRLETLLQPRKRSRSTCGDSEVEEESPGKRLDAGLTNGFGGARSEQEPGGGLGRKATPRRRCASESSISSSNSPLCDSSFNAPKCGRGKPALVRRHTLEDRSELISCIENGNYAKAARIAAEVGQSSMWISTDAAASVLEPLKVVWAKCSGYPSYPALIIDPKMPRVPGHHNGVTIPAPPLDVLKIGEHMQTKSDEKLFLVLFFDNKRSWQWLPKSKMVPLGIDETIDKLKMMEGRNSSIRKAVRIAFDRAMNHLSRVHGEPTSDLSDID

Assay [3] has as its target T3, Bromodomain and PHD finger-containing protein 3 (Homo sapiens, UniProt Q9ULD4).
T3 sequence (Q9ULD4 whole entry): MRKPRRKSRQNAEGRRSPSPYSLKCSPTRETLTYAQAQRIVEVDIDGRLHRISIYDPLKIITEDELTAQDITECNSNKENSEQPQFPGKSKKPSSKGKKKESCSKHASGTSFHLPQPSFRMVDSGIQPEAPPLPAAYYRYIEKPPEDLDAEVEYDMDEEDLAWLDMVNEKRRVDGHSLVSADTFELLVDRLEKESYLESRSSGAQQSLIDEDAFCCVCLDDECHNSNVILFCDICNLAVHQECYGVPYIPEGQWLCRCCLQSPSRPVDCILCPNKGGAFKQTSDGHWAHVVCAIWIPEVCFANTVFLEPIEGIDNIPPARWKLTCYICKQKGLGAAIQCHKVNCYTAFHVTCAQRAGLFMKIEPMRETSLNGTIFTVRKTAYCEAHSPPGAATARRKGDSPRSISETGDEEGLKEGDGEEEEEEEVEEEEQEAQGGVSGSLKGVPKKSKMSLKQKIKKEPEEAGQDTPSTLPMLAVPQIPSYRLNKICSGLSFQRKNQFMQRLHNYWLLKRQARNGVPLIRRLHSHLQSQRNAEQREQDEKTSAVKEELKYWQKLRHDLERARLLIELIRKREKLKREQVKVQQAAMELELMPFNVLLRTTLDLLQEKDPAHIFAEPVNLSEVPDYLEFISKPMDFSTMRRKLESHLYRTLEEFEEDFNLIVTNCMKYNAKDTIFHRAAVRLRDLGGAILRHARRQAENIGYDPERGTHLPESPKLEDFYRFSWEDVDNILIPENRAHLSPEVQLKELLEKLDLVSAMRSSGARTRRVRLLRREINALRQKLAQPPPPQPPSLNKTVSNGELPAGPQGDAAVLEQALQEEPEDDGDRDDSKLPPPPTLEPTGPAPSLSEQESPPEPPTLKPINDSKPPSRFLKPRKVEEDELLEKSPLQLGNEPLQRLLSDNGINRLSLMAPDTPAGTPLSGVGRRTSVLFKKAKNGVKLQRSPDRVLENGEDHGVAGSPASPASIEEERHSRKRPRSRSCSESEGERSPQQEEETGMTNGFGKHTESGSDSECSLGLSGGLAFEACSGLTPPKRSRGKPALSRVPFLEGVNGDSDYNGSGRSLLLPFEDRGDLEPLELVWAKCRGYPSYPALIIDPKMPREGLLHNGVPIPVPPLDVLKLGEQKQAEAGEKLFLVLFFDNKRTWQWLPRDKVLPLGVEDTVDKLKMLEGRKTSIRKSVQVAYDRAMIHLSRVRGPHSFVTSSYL

Assay [4] deals with T4, Inhibitor of nuclear factor kappa-B kinase subunit beta (Homo sapiens, UniProt O14920).
T4 sequence (O14920 whole entry): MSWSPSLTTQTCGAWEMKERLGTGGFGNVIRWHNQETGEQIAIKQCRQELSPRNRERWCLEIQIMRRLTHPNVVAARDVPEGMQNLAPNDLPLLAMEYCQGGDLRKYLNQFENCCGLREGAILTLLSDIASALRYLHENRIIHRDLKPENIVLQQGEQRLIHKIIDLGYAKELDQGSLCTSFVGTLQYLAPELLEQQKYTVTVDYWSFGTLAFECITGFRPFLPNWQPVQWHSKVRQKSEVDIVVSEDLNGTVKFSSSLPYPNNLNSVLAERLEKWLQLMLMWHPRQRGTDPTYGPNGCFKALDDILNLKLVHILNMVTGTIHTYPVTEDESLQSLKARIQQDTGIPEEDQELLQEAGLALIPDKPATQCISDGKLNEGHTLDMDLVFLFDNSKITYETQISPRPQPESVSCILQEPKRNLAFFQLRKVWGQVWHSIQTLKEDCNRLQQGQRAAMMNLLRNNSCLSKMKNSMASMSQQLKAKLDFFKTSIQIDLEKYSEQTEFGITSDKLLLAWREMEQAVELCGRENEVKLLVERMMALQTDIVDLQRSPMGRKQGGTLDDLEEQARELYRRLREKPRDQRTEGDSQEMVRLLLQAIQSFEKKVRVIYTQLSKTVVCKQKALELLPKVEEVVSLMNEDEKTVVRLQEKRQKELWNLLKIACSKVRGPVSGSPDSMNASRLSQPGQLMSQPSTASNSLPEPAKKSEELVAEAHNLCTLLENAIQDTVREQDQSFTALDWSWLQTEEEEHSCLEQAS

In assay [5] the target is T5, Casein kinase I isoform alpha (Homo sapiens, UniProt P48729).
T5 sequence (P48729 whole entry, canonical isoform): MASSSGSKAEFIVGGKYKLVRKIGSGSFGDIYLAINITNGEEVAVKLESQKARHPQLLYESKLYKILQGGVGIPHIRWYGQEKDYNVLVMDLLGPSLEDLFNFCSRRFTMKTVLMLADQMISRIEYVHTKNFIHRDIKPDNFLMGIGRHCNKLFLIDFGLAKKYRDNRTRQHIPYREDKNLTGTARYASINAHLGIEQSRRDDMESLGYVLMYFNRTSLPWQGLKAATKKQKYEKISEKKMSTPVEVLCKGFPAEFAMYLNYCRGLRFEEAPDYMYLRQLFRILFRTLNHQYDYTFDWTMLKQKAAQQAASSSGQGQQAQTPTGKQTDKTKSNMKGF
Assay [6] addresses T6, Casein kinase I isoform delta (Homo sapiens, UniProt P48730).
The target of assay [7] is T7, Casein kinase I isoform epsilon (Homo sapiens, UniProt P49674).
T7 sequence (P49674 whole entry, canonical isoform): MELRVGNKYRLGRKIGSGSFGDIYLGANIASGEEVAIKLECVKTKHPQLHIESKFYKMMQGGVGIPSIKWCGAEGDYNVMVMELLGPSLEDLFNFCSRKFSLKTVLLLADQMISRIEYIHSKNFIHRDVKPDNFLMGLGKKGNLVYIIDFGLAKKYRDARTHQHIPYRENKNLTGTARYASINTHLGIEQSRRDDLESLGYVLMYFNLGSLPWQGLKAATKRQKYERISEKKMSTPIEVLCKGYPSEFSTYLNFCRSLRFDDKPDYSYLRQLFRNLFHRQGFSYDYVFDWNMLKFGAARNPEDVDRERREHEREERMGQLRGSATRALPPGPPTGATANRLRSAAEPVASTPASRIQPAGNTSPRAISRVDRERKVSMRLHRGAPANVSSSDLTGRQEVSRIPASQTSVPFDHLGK
Assay [8] concerns the target T5, Casein kinase I isoform alpha. This is another data set of the same source.
Assay [9] deals with T6, Casein kinase I isoform delta. The source holds these as a separate data set.
The target of assay [10] is T7, Casein kinase I isoform epsilon. This is another data set of the same source.

T6 sequence (P48730 whole entry, canonical isoform): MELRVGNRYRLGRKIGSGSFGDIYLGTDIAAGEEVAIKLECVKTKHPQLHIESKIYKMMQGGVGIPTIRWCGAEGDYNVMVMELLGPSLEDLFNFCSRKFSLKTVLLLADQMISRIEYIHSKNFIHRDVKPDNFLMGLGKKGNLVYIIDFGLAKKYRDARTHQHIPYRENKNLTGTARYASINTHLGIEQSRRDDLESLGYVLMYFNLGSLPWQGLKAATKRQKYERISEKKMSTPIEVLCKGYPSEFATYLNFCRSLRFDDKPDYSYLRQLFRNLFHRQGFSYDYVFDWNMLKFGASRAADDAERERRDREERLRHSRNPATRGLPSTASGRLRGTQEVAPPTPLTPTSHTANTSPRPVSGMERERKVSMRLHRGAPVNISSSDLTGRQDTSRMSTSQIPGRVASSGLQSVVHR

Take `CCc1cc2cc(NS(=O)(=O)c3ccc(C#N)cc3)ccc2n(CC)c1=O`: the IC50 in [1], in assay [2] and in assay [3] was over 100 µM throughout.

For `CN(C)C(=O)c1sc2nc(N3CCC(S(C)(=O)=O)CC3)cc(C(F)(F)F)c2c1N` [BI-5026], the IC50 – broadly, the concentration needed to halve the response being measured – in assay [4] is over 10 µM.

On to `CN1CCC(F)(Cn2cnc(-c3ccc(F)cn3)c2-c2ccnc3[nH]ccc23)CC1`, for which the IC50 in [5] was determined as 0.0072 µM; in assay [6], 0.0061 µM; in [7] it was 0.0273 µM.

Regarding `CCc1ccc(-c2ncn(CC3(F)CCN(C)CC3)c2-c2ccnc3[nH]ccc23)nc1`, the IC50 in assay [8], in assay [9] and in assay [10] was over 3 µM throughout.
